Data reported in patent publication US20220389008A1, “4-QUINOLINONE ANTIBACTERIAL COMPOUNDS” (Janssen Sciences Ireland Unlimited Company, priority 2019, published 2022).
Where two headings read alike, the source gives them in different places.

Key:
[1] = system: Mycobacterium tuberculosis strain H37Rv ΔctaE-ΔqcrCAB; assay: microbe, parasite or virus in culture; type: cell-based; settings: 240 h
[2] = system: Mitochondrial toxicity (Glu/Gal); assay: Mitochondrial toxicity (Glu/Gal) assay; type: cell-based; design: key to Score: “negative” means that in the test, it was found to have low mitotoxicity (and hence no mitotoxicity alerts); “positive” means that there were some mitotoxicity alerts; “inconclusive” means that no accurate conclusion could be drawn; settings: for Score: mitotoxicity score; for Δ IC50,glu/IC50,gal: ratio glu/gal
From the text: The compounds of the invention/examples may have advantages associated with in vitro potency, kill kinetics (i.e. bactericidal effect) in vitro, PK properties, food effect, safety/toxicity (including liver toxicity, coagulation, 5-LO oxygenase), metabolic stability, Ames II negativity, MNT negativity, aqueous based solubility (and ability to formulate) and/or cardiovascular effect e.g. on animals (e.g. anesthetized guinea pig). The data below that was generated/calculated may be obtained using standard methods/assays, for instance that are available in the literature or which may be performed by a supplier (e.g. Microsomal Stability Assay—Cyprotex, Mitochondrial toxicity (Glu/Gal) assay—Cyprotex, as well as literature CYP cocktail inhibition assays).

[3] = system: Mycobacterium tuberculosis (strain H37Ra), cyt bd; settings: Mtb H37Ra; for (i) % OCR after cyt bd inhibitor: test compound 10 μM added after Compound X 0.9 μM; for (ii) % OCR after cccp: test compound 10 μM after Compound X 0.9 μM, then CCCP 1 μM
[4] = galactose medium, read-out: IC50, gal
[5] = glucose medium, read-out: IC50, glu

Row | SMILES | IC50 [1] [µM] | IC50 [2, 4] [µM] | IC50 [2, 5] [µM] | Score [2] | Δ IC50,glu/IC50,gal [2] | (i) % OCR after cyt bd inhibitor [3] | (ii) % OCR after cccp [3]
1 | Cc1c(-c2nc3ccc(-c4ccc(OC(F)(F)F)c(F)c4)cn3n2)[nH]c2ccccc2c1=O [Compound 1] | 1.63 | 19.8 | 100 | positive | [x]5.06 | 26.9% | 35.1%
2 | Cc1c(-c2nc3ccc(-c4ccc(OC(F)(F)F)cc4)cn3n2)[nH]c2ccc(F)cc2c1=O [Compound 3] |  |  |  |  |  | 28.75% | 38.75%
3 | Cc1c(-c2nc3ccc(CN4CCC(C(F)(F)F)CC4)cn3n2)[nH]c2ccccc2c1=O [Compound 8] | 3.7 | 180 | 163 | negative | [x]0.91 | 82.67% | 59.43%
4 | Cc1c(-c2nc3ccc(N4CCCC(C(F)(F)F)C4)cn3n2)[nH]c2ccccc2c1=O (centres unmarked) [Compound 9] | 1.31 |  |  |  |  | 58.71% | 62.22%
5 | Cc1c(-c2nc3ccc(-c4ccc(F)c(F)c4)cn3n2)[nH]c2ccccc2c1=O [Compound 10] |  |  |  |  |  | 43.4% | 63.9%
6 | Cc1c(-c2nc3ccc(-c4ccc(C(F)(F)F)s4)cn3n2)[nH]c2ccccc2c1=O [Compound 11] | 2.6 |  |  |  |  | 62.79% | 69.17%
7 | Cc1c(-c2nc3ccc(N4CCC(OC(F)(F)F)CC4)cn3n2)[nH]c2ccccc2c1=O [Compound 13] | 4.12 | 141 | 200 | negative | [x]1.42 | 61.74% | 83.9%
8 | Cc1c(-c2nc3ccc(-c4cc(C(F)(F)F)nn4C)cn3n2)[nH]c2ccccc2c1=O [Compound 15] | 57 | 200 | 44.3 | negative | [x]0.22 | 91.58% | 94.75%
9 | Cc1c(-c2nc3ccc(N4CCN(CC(F)(F)F)CC4)cn3n2)[nH]c2ccccc2c1=O [Compound 16] | 1.17 | 200 | 200 | negative | [x]0 | 80.34% | 95.29%
10 | Cc1noc(-c2ccc3nc(-c4[nH]c5ccccc5c(=O)c4C)nn3c2)n1 [Compound 17] | > 5 |  |  |  |  | 98.64% | 97.68%
11 | Cc1c(-c2nc3ccc(CC(F)(F)F)cn3n2)[nH]c2ccccc2c1=O [Compound 20] | 2.17 | 125 | 176 | negative | [x]1.41 | 78.5% | 102.86%
12 | Cc1c(-c2nc3cc(C(F)(F)F)c(-c4ccccc4)cn3n2)[nH]c2ccccc2c1=O [Compound 21] | 11.4 | 50 | 50 | negative | [x]0 | 81.6% | 103.4%
13 | Cc1c(-c2cn3cc(-c4cccc(OC(F)(F)F)c4)ccc3n2)[nH]c2ccccc2c1=O [Compound 23] | > 100 | 200 | 200 | negative |  | 97.51% | 110.11%
14 | Cc1c(-c2nc3ccc(-c4nc(C(F)(F)F)no4)cn3n2)[nH]c2ccccc2c1=O [Compound 24] | 2.95 | 20 | 20 | negative | [x]0 | 99.13% | 113.29%
15 | CNC(=O)c1c(-c2nc3ccc(-c4nc(C(F)(F)F)cs4)cn3n2)[nH]c2ccccc2c1=O [Compound 27] | > 50 | 100 | 100 | negative | [x]0 | 111.36% | 117.59%
16 | Cc1c(-c2nc3cc(-c4cccc(OC(F)(F)F)c4)ccn3n2)[nH]c2ccccc2c1=O [Compound 28] | 10 | 58.7 | 100 | negative | [x]1.7 | 123.3% | 117.7%
17 | Cc1c(-c2cn3cc(-c4ccc(OC(F)(F)F)cc4)ccc3n2)[nH]c2ccccc2c1=O [Compound 35] | 2.39 |  |  |  |  | 102.9% | 129.2%
18 | Cc1c(-c2nc3ccc(-c4ccc(F)cc4)cn3n2)[nH]c2ccccc2c1=O [Compound 36] |  |  |  |  |  | 88.6% | 130.6%
19 | Cc1c(-c2nc3ccc(-c4ncc(C(F)(F)F)s4)cn3n2)[nH]c2ccccc2c1=O [Compound 37] |  |  |  |  |  | 93.8% | 132.68%
20 | Cc1c(-c2nc3ccc(-c4nc(C(F)(F)F)ns4)cn3n2)[nH]c2ccccc2c1=O [Compound 38] | 4.88 |  |  |  |  | 95.63% | 132.88%

Row | SMILES | IC50 [1] [µM] | IC50 [2, 4] [µM] | IC50 [2, 5] [µM] | Score [2] | Δ IC50,glu/IC50,gal [2] | (i) % OCR after cyt bd inhibitor [3] | (ii) % OCR after cccp [3]
21 | Cc1c(-c2nc3ccc(N4CCC(C(F)(F)F)CC4)cn3n2)[nH]c2ccccc2c1=O [Compound 47] |  |  |  |  |  | 99.34% | 141.23%
22 | Cc1c(-c2nc3ccc(-c4nc(C(F)(F)F)nn4C)cn3n2)[nH]c2ccccc2c1=O [Compound 49] | > 50 |  |  |  |  | 101.3% | 143.58%
23 | CNC(=O)c1c(-c2nc3ccc(-c4ccc(OC(F)(F)F)cc4)cn3n2)[nH]c2ccccc2c1=O [Compound 50] |  | 86.5 | 100 | negative | [x]1.16 | 114.33% | 144.07%
24 | Cc1c(-c2nc3ccc(N4CCOCC4)cn3n2)[nH]c2ccccc2c1=O [Compound 54] | 5.94 |  |  |  |  |  | 
25 | Cc1c(-c2nc3ccc(-c4nnc(C(F)(F)F)s4)cn3n2)[nH]c2ccccc2c1=O [Compound 59] |  |  |  |  |  | 107.31% | 154.34%
26 | Cc1c(-c2nc3ccc(-c4ccc(F)nc4)cn3n2)[nH]c2ccccc2c1=O [Compound 61] |  |  |  |  |  | 108% | 155.2%
27 | Cc1c(-c2nc3ccc(-c4ccc(OC(F)(F)F)cc4)cn3n2)[nH]c2c(F)cc(F)cc2c1=O [Compound 64] |  |  |  |  |  | 109.65% | 158.95%
28 | COc1cc2[nH]c(-c3nc4ccc(-c5ccc(OC(F)(F)F)cc5)cn4n3)c(C)c(=O)c2cc1Cl [Compound 69] |  |  |  |  |  | 150.98% | 165.1%
29 | Cc1csc(-c2ccc3nc(-c4[nH]c5ccccc5c(=O)c4C)nn3c2)n1 [Compound 71] | > 10 |  |  |  |  | 95.71% | 167.55%
30 | Cc1c(-c2nc3ccc(-c4cn(C)nn4)cn3n2)[nH]c2ccccc2c1=O [Compound 76] | > 5 |  |  |  |  | 111.72% | 175.05%
31 | COc1cc2c(=O)c(C)c(-c3nc4ccc(-c5ccc(OC(F)(F)F)cc5)cn4n3)[nH]c2cc1Cl [Compound 78] |  |  |  |  |  | 135.74% | 178.3%
32 | Cc1c(-c2nc3ccc(-c4cc(F)cc(F)c4)cn3n2)[nH]c2ccccc2c1=O [Compound 88] | 5.35 |  |  |  |  |  | 76%
33 | COc1cccc(-c2ccc3nc(-c4[nH]c5ccccc5c(=O)c4C)nn3c2)c1 [Compound 89] | 0.574 |  |  |  |  | 55,82% | 62,29%
34 | Cc1ccc(-c2ccc3nc(-c4[nH]c5ccccc5c(=O)c4C)nn3c2)o1 [Compound 91] | 1.74 |  |  |  |  | 49,11% | 56,23%
35 | COc1ccc(-c2ccc3nc(-c4[nH]c5ccccc5c(=O)c4C)nn3c2)cc1F [Compound 98] | 1.98 |  |  |  |  | 54,17% | 73,86%
36 | Cc1c(-c2nc3ccc(-c4cccc(C(F)F)c4)cn3n2)[nH]c2ccccc2c1=O [Compound 107] | 3.32 |  |  |  |  | 58,92% | 76,98%
37 | Cc1c(-c2nc3ccc(-c4cccc(CC(F)F)c4)cn3n2)[nH]c2ccccc2c1=O [Compound 112] | 1.85 |  |  |  |  | 31,36% | 38,59%
38 | Cc1c(-c2nc3ccc(-c4ccnn4C)cn3n2)[nH]c2ccccc2c1=O [Compound 116] | 4.59 |  |  |  |  | 72,01% | 85,87%
39 | C/C=C(\C=C/C1=NC(c2[nH]c3ccccc3c(=O)c2C)=NC(CC)C1)c1ccc(OC)c(OC)c1 (centres unmarked) [Compound 120] | 0.697 |  |  |  |  | 59,83% | 89,24%
40 | Cc1c(-c2nc3ccc(-c4ccc(C(F)(F)F)c(F)c4)cn3n2)[nH]c2ccccc2c1=O [Compound 123] | 4.14 |  |  |  |  | 50,75% | 
